Entries after “also recorded” stand apart in the source; their conditions may differ. Square brackets hold non-standard residues; d marks the D form. Peptide text beside a SMILES is read from it. * marks the point of attachment. X1 = O=C(O)CN(CCN(CC(=O)O)CC(=O)O)CCN(CC(=O)O)CC(=O)NCCCOCCOCCOCCCNC(=O)COCC(=O)*; Nle = CCCC[C@H](N)C(=O)O
What was measured:
hMC4R [1] = target: T1, hMC4R (Homo sapiens, UniProt P32245); assay: Competitive binding assay against TRF probe 19, six-well plate protocol; conditions: for Relative Potency: compared to the monovalent MSH(4) construct with the same scaffold core; for Ki lower than / inhibition higher than the corresponding monovalent molecule: divalent versus monovalent, against probe 19; for inhibition of the binding and uptake of probe 19: over the concentration range tested (10 μM–0.10 nM), probe 19 20 nM
hMC4R [2] = target: T1, hMC4R; conditions: saturation binding assays using older protocol (96-well plates); ref [14]; cited from earlier work

T1 sequence (P32245 whole entry): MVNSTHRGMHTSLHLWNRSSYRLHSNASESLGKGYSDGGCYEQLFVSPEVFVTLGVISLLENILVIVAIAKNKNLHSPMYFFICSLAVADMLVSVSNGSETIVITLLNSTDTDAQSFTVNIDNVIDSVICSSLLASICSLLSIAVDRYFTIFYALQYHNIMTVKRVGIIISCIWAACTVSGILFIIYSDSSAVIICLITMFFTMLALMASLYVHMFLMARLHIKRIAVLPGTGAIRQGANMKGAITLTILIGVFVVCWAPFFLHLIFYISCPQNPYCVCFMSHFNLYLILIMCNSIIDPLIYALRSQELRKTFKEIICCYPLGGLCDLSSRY

SMILES	Ki (hMC4R [1]) [nM]	Relative Potency (hMC4R [1])	Ki lower than / inhibition higher than the corresponding monovalent molecule (hMC4R [1]) [fold]	Kd (hMC4R [2]) [nM]	inhibition of the binding and uptake of probe 19 (hMC4R [1])
N=C(N)NCCC[C@H](NC(=O)[C@@H](Cc1ccccc1)NC(=O)[C@H](Cc1c[nH]cn1)NC(=O)CCCCCn1cc(COc2cc(OCc3cn(CCCCCC(=O)N[C@@H](CO)C(N)=O)nn3)cc(OCc3cn(CCCCCC(=O)N[C@@H](CO)C(N)=O)nn3)c2)nn1)C(=O)N[C@@H](Cc1c[nH]c2ccccc12)C(N)=O [Compound 14a, 6,6′-(4,4′-(((5-((1-((6S,9R,12S)-12-((1H-Imidazol-4-yl)methyl)-1-amino-6-(((S)-1-amino-3-(1H-indol-3-yl)-1-oxopropan-2-yl)carbamoyl)-9-benzyl-1-imino-8,11,14-trioxo-2,7,10,13-tetraazanonadecan-19-yl)-1H-1,2,3-triazol-4-yl)methoxy)-1,3-phenylene)bis(oxy))bis(methylene))bis(1H-1,2,3-triazole-4,1-diyl))bis(N-(1-amino-3-hydroxy-1-oxopropan-2-yl)hexanamide)]	990 ± 140	1			
N=C(N)NCCC[C@H](NC(=O)[C@@H](Cc1ccccc1)NC(=O)[C@H](Cc1c[nH]cn1)NC(=O)CCCCCn1cc(CN2CCN(Cc3cn(CCCCCC(=O)N[C@@H](Cc4c[nH]cn4)C(=O)N[C@H](Cc4ccccc4)C(=O)N[C@@H](CCCNC(=N)N)C(=O)N[C@@H](Cc4c[nH]c5ccccc45)C(N)=O)nn3)CCN(Cc3cn(CCCCCC(=O)N[C@@H](Cc4c[nH]cn4)C(=O)N[C@H](Cc4ccccc4)C(=O)N[C@@H](CCCNC(=N)N)C(=O)N[C@@H](Cc4c[nH]c5ccccc45)C(N)=O)nn3)CC2)nn1)C(=O)N[C@@H](Cc1c[nH]c2ccccc12)C(N)=O [Compound 18, 6,6′,6″-(4,4′,4″-((1,4,7-Triazonane-1,4,7-triyl)tris(methylene))tris(1H-1,2,3-triazole-4,1-diyl))tris(N-((S)-1-(((R)-1-(((S)-1-(((S)-1-amino-3-(1H-indol-3-yl)-1-oxopropan-2-yl)amino)-5-guanidino-1-oxopentan-2-yl)amino)-1-oxo-3-phenylpropan-2-yl)amino)-3-(1H-imidazol-4-yl)-1-oxopropan-2-yl)hexanamide)]	25 ± 4				
N=C(N)NCCC[C@H](NC(=O)[C@@H](Cc1ccccc1)NC(=O)[C@H](Cc1c[nH]cn1)NC(=O)CCCCCn1cc(CN(Cc2cn(CCCCCC(=O)N[C@@H](CO)C(N)=O)nn2)Cc2cn(CCCCCC(=O)N[C@@H](Cc3c[nH]cn3)C(=O)N[C@H](Cc3ccccc3)C(=O)N[C@@H](CCCNC(=N)N)C(=O)N[C@@H](Cc3c[nH]c4ccccc34)C(N)=O)nn2)nn1)C(=O)N[C@@H](Cc1c[nH]c2ccccc12)C(N)=O [Compound 16b, 6,6′-(4,4′-((((1-(6-(((S)-1-Amino-3-hydroxy-1-oxopropan-2-yl)amino)-6-oxohexyl)-1H-1,2,3-triazol-4-yl)methyl)azanediyl)bis(methylene))bis(1H-1,2,3-triazole-4,1-diyl))bis(N-((S)-1-(((R)-1-(((S)-1-(((S)-1-amino-3-(1H-indol-3-yl)-1-oxopropan-2-yl)amino)-5-guanidino-1-oxopentan-2-yl)amino)-1-oxo-3-phenylpropan-2-yl)amino)-3-(1H-imidazol-4-yl)-1-oxopropan-2-yl)hexanamide)]	69 ± 12	32	32		
N=C(N)NCCC[C@H](NC(=O)[C@@H](Cc1ccccc1)NC(=O)[C@H](Cc1c[nH]cn1)NC(=O)CCCCCn1cc(COc2cc(OCc3cn(CCCCCC(=O)N[C@@H](CO)C(N)=O)nn3)cc(OCc3cn(CCCCCC(=O)N[C@@H](Cc4c[nH]cn4)C(=O)N[C@H](Cc4ccccc4)C(=O)N[C@@H](CCCNC(=N)N)C(=O)N[C@@H](Cc4c[nH]c5ccccc45)C(N)=O)nn3)c2)nn1)C(=O)N[C@@H](Cc1c[nH]c2ccccc12)C(N)=O [Compound 14b, 6,6′-(4,4′-(((5-((1-(6-((1-Amino-3-hydroxy-1-oxopropan-2-yl)amino)-6-oxohexyl)-1H-1,2,3-triazol-4-yl)methoxy)-1,3-phenylene)bis(oxy))bis(methylene))bis(1H-1,2,3-triazole-4,1-diyl))bis(N-((S)-1-(((R)-1-(((S)-1-(((S)-1-amino-3-(1H-indol-3-yl)-1-oxopropan-2-yl)amino)-5-guanidino-1-oxopentan-2-yl)amino)-1-oxo-3-phenylpropan-2-yl)amino)-3-(1H-imidazol-4-yl)-1-oxopropan-2-yl)hexanamide)]	91 ± 13	11	11		
CCCC[C@H](NC(=O)[C@H](CO)NC(=O)COCC(=O)NCCCOCCOCCOCCCNC(=O)CN(CCN(CCN(CC(=O)O)CC(=O)O)CC(=O)O)CC(=O)O)C(=O)N[C@@H](CCC(=O)O)C(=O)N[C@@H](Cc1c[nH]cn1)C(=O)N[C@H](Cc1ccccc1)C(=O)N[C@@H](CCCNC(=N)N)C(=O)N[C@@H](Cc1c[nH]c2ccccc12)C(N)=O [Compound 19, Eu-DTPA-PEGO-MSH(7)-NH2] (X1-S[Nle]EH[dF]RW-NH2)				27 ± 4	
N=C(N)NCCC[C@H](NC(=O)[C@@H](Cc1ccccc1)NC(=O)[C@H](Cc1c[nH]cn1)NC(=O)CCCCCn1cc(CN(Cc2cn(CCCCCC(=O)N[C@@H](Cc3c[nH]cn3)C(=O)N[C@H](Cc3ccccc3)C(=O)N[C@@H](CCCNC(=N)N)C(=O)N[C@@H](Cc3c[nH]c4ccccc34)C(N)=O)nn2)Cc2cn(CCCCCC(=O)N[C@@H](Cc3c[nH]cn3)C(=O)N[C@H](Cc3ccccc3)C(=O)N[C@@H](CCCNC(=N)N)C(=O)N[C@@H](Cc3c[nH]c4ccccc34)C(N)=O)nn2)nn1)C(=O)N[C@@H](Cc1c[nH]c2ccccc12)C(N)=O [Compound 16c, 6,6′,6″-(4,4′,4″-(Nitrilotris(methylene))tris(1H-1,2,3-triazole-4,1-diyl))tris(N-((S)-1-(((R)-1-(((S)-1-(((S)-1-amino-3-(1H-indol-3-yl)-1-oxopropan-2-yl)amino)-5-guanidino-1-oxopentan-2-yl)amino)-1-oxo-3-phenylpropan-2-yl)amino)-3-(1H-imidazol-4-yl)-1-oxopropan-2-yl)hexanamide)]	36 ± 4	61			
NC(=O)[C@H](CO)NC(=O)CCCCCn1cc(COc2cc(OCc3cn(CCCCCC(=O)N[C@@H](CO)C(N)=O)nn3)cc(OCc3cn(CCCCCC(=O)N[C@@H](CO)C(N)=O)nn3)c2)nn1 [Compound 12a, 6,6′,6″-(4,4′,4″-((Benzene-1,3,5-triyltris(oxy))tris(methylene))tris(1H-1,2,3-triazole-4,1-diyl))tris(N-((S)-1-amino-3-hydroxy-1-oxopropan-2-yl)hexanamide)]					did not inhibit; also recorded: not competitive inhibitors
NC(=O)[C@H](CO)NC(=O)CCCCCn1cc(CN(Cc2cn(CCCCCC(=O)N[C@@H](CO)C(N)=O)nn2)Cc2cn(CCCCCC(=O)N[C@@H](CO)C(N)=O)nn2)nn1 [Compound 15a, 6,6′,6″-(4,4′,4″-(Nitrilotris(methylene))tris(1H-1,2,3-triazole-4,1-diyl))tris(N-((S)-1-amino-3-hydroxy-1-oxopropan-2-yl)hexanamide)]					did not inhibit; also recorded: not competitive inhibitors

From PMC4780440 (Organic & biomolecular chemistry, 2015)
